Measured values reported in US6468763B1, “Optical detection of transmembrane potential changes” (Caliper Technologies Corp., priority 1999, dated 2002).

System: CHO cells
Assay: Voltage dependent quenching of WGA-F1 fluorescence in response to changes in the potassium diffusion potential
Format: cell-based, Chinese hamster
Settings: excitation 475 nm
Protocol: Crystal violet was purchased from Fischer Scientific. Fluorescein labeled wheat germ agglutinin (WGA-F1) was purchased from Sigma Chemical. Valinomycin was purchased from Sigma Chemical Chinese hamster ovary cells (CHO) were grown in Ham's F12 media (Irvine Scientific) with 10% fetal bovine serum and 1% penicillin/streptomycin. Adherent cells were harvested using phosphate buffered saline with 0.5 mM EDTA (Irvine Scientific). Cells were washed in Hank's buffered saline solution (HBSS) containing 20 mM Hepes at pH 7.2. Cells suspended in HBSS at a concentration of 10^6 cells/ml were stained with 2 μg/ml WGA-F1 and 40 nM crystal violet for 15 minutes at room temperature. The cells were washed with HBSS and suspended in HBSS containing 1 μM sulforhodamine 101 (Sigma Chemical). Sulforhodamine 101 was used as a voltage insensitive volume marker to account for possible dilution artifacts. […] Fluorescence measurements on cell suspensions were made at room temperature using a FluoroMax-2 fluorometer (Spex). […]
The cationic quencher will redistribute from the intracellular side of the plasma membrane to the extracellular side as the cell is depolarized. […] The fluorescein fluorescence in the depolarized cells is decreased by 20% compared to the hyperpolarized cells. No difference is seen in sulforhodamine 101 fluorescence.
Octadecyl rhodamine B (R18) was purchased from Molecular Probes. […] Fluorescence measurements on cell suspensions were made at room temperature using a FluoroMax-2 fluorometer (Spex). […]
The cationic quencher redistributes from the intracellular side of the plasma membrane to the extracellular side as the cell is depolarized. […] The fluorescein fluorescence in the depolarized cells is decreased by 3% and the rhodamine fluorescence is increased by 2% compared to the hyperpolarized cells. The observed changes in fluorescein and R18 fluorescence are consistent with the translocation-dependent changes in fluorescence resonance energy transfer.

[1] = CHO cells stained with 2 μg/ml WGA-F1 and 500 nM R18, high potassium vs high sodium buffer, valinomycin

CN(C)c1ccc(C(=C2C=CC(=[N+](C)C)C=C2)c2ccc(N(C)C)cc2)cc1 [crystal violet]
decrease of fluorescein fluorescence in the depolarized cells compared to the hyperpolarized cells (CHO cells stained with 2 μg/ml WGA-F1 and 40 nM crystal violet, high potassium buffer (126 mM K+) vs high sodium buffer (6 mM K+), 5 μM valinomycin): 20%

CCCCCCCCCCCCCCCCCCOC(=O)c1ccccc1-c1c2ccc(=[N+](CC)CC)cc-2oc2cc(N(CC)CC)ccc12.[Cl-] [R18, Octadecyl rhodamine B]
decrease of fluorescein fluorescence in the depolarized cells compared to the hyperpolarized cells [1]: 3% | increase of rhodamine fluorescence (sensitized emission) in the depolarized cells compared to the hyperpolarized cells [1]: 2%
